We go through 30 molecules from patent US10336739B2, “4-hydroxy-3-(heteroaryl)pyridine-2-one APJ agonists” (BRISTOL-MYERS SQUIBB COMPANY, priority 2015, dated 2019).

The structures appear in SMILES notation. pEC50: −log10 of the molar value.

human APJ receptor, sequence (P35414 whole entry): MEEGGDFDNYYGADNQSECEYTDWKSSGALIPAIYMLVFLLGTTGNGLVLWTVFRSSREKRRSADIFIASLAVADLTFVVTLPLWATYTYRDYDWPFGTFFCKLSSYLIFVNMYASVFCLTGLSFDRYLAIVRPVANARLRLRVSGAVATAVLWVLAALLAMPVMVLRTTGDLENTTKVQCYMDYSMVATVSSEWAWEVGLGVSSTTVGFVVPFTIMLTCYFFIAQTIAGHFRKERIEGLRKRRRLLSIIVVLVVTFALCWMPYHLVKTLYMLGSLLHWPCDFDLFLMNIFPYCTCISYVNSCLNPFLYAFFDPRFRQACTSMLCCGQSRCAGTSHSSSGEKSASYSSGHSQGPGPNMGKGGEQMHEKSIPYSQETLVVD

The first test has as its target human APJ receptor (Homo sapiens (Human), UniProt P35414). The test is described as follows: Intracellular cAMP accumulation assay (APJ hcAMP, HTRF). The format is cell-based. Conditions: HEK293 cells stably expressing human APJ receptor; inhibition of forskolin-mediated cAMP production; read-out: Human APJ cAMP EC50 Potency range. The gist of the method: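 HEK293 cells stably expressing human APJ, 5,000 per well, exposed to compound with […] IBMX and 2 μM forskolin for 30 minutes at room temperature. cAMP measured by HTRF after lysis and 60 min detection incubation. EC50 from sigmoidal variable-slope fits of inhibition of forskolin-induced cAMP, quantified against a cAMP standard curve.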
Broadly, the pEC50 is the EC50 on a negative log10 scale, so that one unit is a factor of ten. For `CCCCc1nc(O)c(-c2nnc(Cc3noc4ccccc34)o2)c(O)c1-c1c(C)cccc1C` [Example 224, 3-[5-(1,2-benzoxazol-3-ylmethyl)-1,3,4-oxadiazol-2-yl]-6-butyl-5-(2,6-dimethylphenyl)pyridine-2,4-diol], the negative logarithm of the EC50 (pEC50) was 8.00 to 11.00.

Staying with this test, now noted: HEK293 cells stably expressing human APJ receptor; inhibition of forskolin-mediated cAMP production; read-out: hAPJ cAMP EC50 (nM) Potency range.
A word on the EC50: it is the midpoint of the concentration-response curve. In the case of `CCOCc1nc(O)c(-c2nnc(Cc3ccc(Cl)cc3)s2)c(O)c1-c1c(OC)cccc1OC` [Example 234, 3-{5-[(4-chlorophenyl)-methyl]-1,3,4-thiadiazol-2-yl}-5-(2,6-dimethoxyphenyl)-6-(ethoxymethyl)-pyridine-2,4-diol], the EC50 is 10 to 100 nM. Consider `COc1cccc(OC)c1-c1c(C2CCCC2)nc(O)c(-c2nnc(Cc3ccc(Cl)cn3)s2)c1O` [Example 233, 3-{5-[(5-chloropyridin-2-yl)methyl]-1,3,4-thiadiazol-2-yl}-6-cyclopentyl-5-(2,6-dimethoxyphenyl) pyridine-2,4-diol], for which the EC50 is 10 to 100 nM. Still for that read-out and setting: the same measure for `CCCCc1nc(O)c(-c2nnc(CNC(=O)c3ccccc3)o2)c(O)c1-c1cc(OC)ccc1OC` [Example 246, N-({5-[6-butyl-5-(2,5-dimethoxyphenyl)-2,4-dihydroxy-pyridin-3-yl]-1,3,4-oxadiazol-2-yl}methyl) benzamide]: 0.01 to 10 nM. Same read-out and setting: the same measure for `CCCCc1nc(O)c(-c2nnc(CC(=O)NCc3cccnc3)o2)c(O)c1-c1c(OC)cccc1OC` [Example 255, 2-{5-[6-butyl-5-(2,6-dimethoxyphenyl)-2,4-dihydroxy-pyridin-3-yl]-1,3,4-oxadiazol-2-yl}-N-[(pyridin-3-yl)methyl] acetamide]: 0.01 to 10 nM; for `CCCCc1nc(O)c(-c2nnc(CNC(=O)c3ccccc3)o2)c(O)c1-c1cc(C(C)C)ccc1OC` [Example 247, N-[(5-{6-butyl-2,4-dihydroxy-5-[2-methoxy-5-(propan-2-yl)phenyl]pyridin-3-yl}-1,3,4-oxadiazol-2-yl)methyl] benzamide]: 0.01 to 10 nM.

The same test, now with this note: HEK293 cells stably expressing human APJ receptor; inhibition of forskolin-mediated cAMP production; read-out: hAPJ cAMP EC50 Potency range.
For `CCCCc1nc(O)c(-c2nnc(Cc3cnn(C)c3)o2)c(O)c1-c1c(OC)cccc1OC` [Example 102, 6-butyl-5-(2,6-dimethoxyphenyl)-3-{5-[(1-methyl-1H-pyrazol-4-yl)methyl]-1,3,4-oxadiazol-2-yl}pyridine-2,4-diol], the negative logarithm of the EC50 (pEC50) is 6.52 to 7.00. Still for that read-out and setting: the same measure for `CCCCc1nc(O)c(-c2nc(Cc3ccc(Cl)cc3)no2)c(O)c1-c1c(OC)cccc1OC` [Example 203, 6-butyl-3-{3-[(4-chlorophenyl)methyl]-1,2,4-oxadiazol-5-yl}-5-(2,6-dimethoxyphenyl) pyridine-2,4-diol]: 7.00 to 8.00. The same measure, in the same setting: the same measure for `CCOCc1[nH]c(=O)c(-c2nnc(Cc3ccc(Cl)nc3)o2)c(O)c1-c1c(OC)cccc1OC` [Example 110, 3-{5-[(6-chloropyridin-3-yl)methyl]-1,3,4-oxadiazol-2-yl}-5-(2,6-dimethoxyphenyl)-6-(ethoxymethyl) pyridine-2,4-diol]: 8.00 to 11.00; for `CCOCc1nc(O)c(-c2nnc(Cc3ccc(Cl)cc3)o2)c(O)c1-c1c(OC)cccc1OC` [Example 90, 3-{5-[(4-chlorophenyl)methyl]-1,3,4-oxadiazol-2-yl}-5-(2,6-dimethoxyphenyl)-6-(ethoxymethyl) pyridine-2,4-diol]: 8.00 to 11.00. On the same count and under the same terms, with `CCOCc1nc(O)c(-c2nnc(Cn3nnc4ccccc43)o2)c(O)c1-c1c(OC)cccc1OC` [Example 133, 3-[5-(1H-1,2,3-benzotriazol-1-ylmethyl)-1,3,4-oxadiazol-2-yl]-5-(2,6-dimethoxyphenyl)-6-(ethoxymethyl) pyridine-2,4-diol] the figure was 8.00 to 11.00.

`CCCCc1nc(O)c(-c2nnc(CC(=O)NCC(F)F)o2)c(O)c1-c1c(OC)cccc1OC` [Example 191, 2-{5-[6-butyl-5-(2,6-dimethoxyphenyl)-2,4-dihydroxypyridin-3-yl]-1,3,4-oxadiazol-2-yl}-N-(2,2-difluoroethyl) acetamide]: the pEC50 is 8.00 to 11.00. On the same count and under the same terms, with `CCCCc1nc(O)c(-c2nnc(Cc3ccc(F)c(F)c3)o2)c(O)c1-c1cccc(COC)c1` [Example 146, 6-butyl-3-{5-[(3,4-difluorophenyl)methyl]-1,3,4-oxadiazol-2-yl}-5-[3-(methoxymethyl)phenyl]pyridine-2,4-diol] the figure was 7.00 to 8.00; with `CCCCc1nc(O)c(-c2nnc(Cc3n[nH]c(=O)c4ccccc34)o2)c(O)c1-c1c(OC)cccc1OC` [Example 44, 4-({5-[6-butyl-5-(2,6-dimethoxyphenyl)-2,4-dihydroxypyridin-3-yl]-1,3,4-oxadiazol-2-yl}methyl)-1,2-dihydrophthalazin-1-one], 7.00 to 8.00; with `CCCCc1nc(O)c(-c2nnc(CC(C)(C)c3ccc(Cl)cc3)o2)c(O)c1-c1c(OC)cccc1OC` [Example 54, 6-butyl-3-{5-[2-(4-chlorophenyl)-2-methylpropyl]-1,3,4-oxadiazol-2-yl}-5-(2,6-dimethoxyphenyl) pyridine-2,4-diol], 8.00 to 11.00. Still for that read-out and setting: the same measure for `COc1cccc(OC)c1-c1c(C2CC2)nc(O)c(-c2nnc(Cc3csc(C)n3)o2)c1O` [Example 94, 6-cyclopropyl-5-(2,6-dimethoxyphenyl) 3-{5-[(2-methyl-1,3-thiazol-4-yl)methyl]-1,3,4-oxadiazol-2-yl}pyridine-2,4-diol]: 7.00 to 8.00; for `CCCCc1nc(O)c(-c2nnc(CCc3nc4ccccc4o3)o2)c(O)c1-c1c(OC)cccc1OC` [Example 47, 3-{5-[2-(1,3-benzoxazol-2-yl)ethyl]-1,3,4-oxadiazol-2-yl}-6-butyl-5-(2,6-dimethoxyphenyl) pyridine-2,4-diol]: 8.00 to 11.00; for `CCCCc1[nH]c(=O)c(-c2nnc(Cc3csc(C)n3)o2)c(O)c1-c1cccc(N2CCCC2)c1` [Example 153, 6-butyl-4-hydroxy-3-{5-[(2-methyl-1,3-thiazol-4-yl)methyl]-1,3,4-oxadiazol-2-yl}-5-[3-(pyrrolidin-1-yl)phenyl]-1,2-dihydropyridin-2-one]: 7.00 to 8.00.

Consider `CCCCc1nc(O)c(-c2nnc(Cc3ccc(F)cc3)o2)c(O)c1-c1c(OC)cccc1OC` [Example 32, 6-butyl-5-(2,6-dimethoxyphenyl)-3-{5-[(4-fluorophenyl)methyl]-1,3,4-oxadiazol-2-yl}pyridine-2,4-diol], for which the pEC50 was 8.00 to 11.00. As to `CCCCc1nc(O)c(-c2nnc(COc3ccc(F)cc3)o2)c(O)c1-c1c(OC)cccc1OC` [Example 42, 6-butyl-5-(2,6-dimethoxyphenyl)-3-[5-(4-fluoro-phenoxymethyl)-1,3,4-oxadiazol-2-yl]pyridine-2,4-diol], the pEC50 was 7.00 to 8.00. Regarding `CCCCc1nc(O)c(-c2nnc(CC(=O)NCCC)o2)c(O)c1-c1c(OC)cccc1OC` [Example 189, 2-{5-[6-butyl-5-(2,6-dimethoxyphenyl)-2,4-dihydroxypyridin-3-yl]-1,3,4-oxadiazol-2-yl}-N-propylacetamide], the pEC50 is 8.00 to 11.00. On the same count and under the same terms, with `CCCCc1nc(O)c(-c2nnc(CCc3nc(-c4ccccc4)no3)o2)c(O)c1-c1c(OC)cccc1OC` [Example 77, 6-butyl-5-(2,6-dimethoxyphenyl)-3-{5-[2-(3-phenyl-1,2,4-oxadiazol-5-yl)ethyl]-1,3,4-oxadiazol-2-yl}pyridine-2,4-diol] the figure was 7.00 to 8.00. Same read-out and setting: the same measure for `CCCCc1nc(O)c(-c2nnc(Cn3ccnc3)o2)c(O)c1-c1c(OC)cccc1OC` [Example 115, 6-butyl-5-(2,6-dimethoxyphenyl)-3-[5-(1H-imidazol-1-ylmethyl)-1,3,4-oxadiazol-2-yl]pyridine-2,4-diol]: 7.00 to 8.00.

Regarding `CCCCc1nc(O)c(-c2nnc(CC(N)=O)o2)c(O)c1-c1c(OC)cccc1OC` [Example 180, 2-{5-[6-butyl-5-(2,6-dimethoxyphenyl)-2,4-dihydroxypyridin-3-yl]-1,3,4-oxadiazol-2-yl}acetamide], the pEC50 was 7.00 to 8.00.

As for `CCCCc1nc(O)c(-c2nnc(CC(=O)NCC)o2)c(O)c1-c1c(OC)cccc1OC` [Example 187, 2-{5-[6-butyl-5-(2,6-dimethoxyphenyl)-2,4-dihydroxypyridin-3-yl]-1,3,4-oxadiazol-2-yl}-N-ethylacetamide], the pEC50 was 8.00 to 11.00. As for `CCOCc1nc(O)c(-c2nnc(Cn3ccc(C(F)(F)F)n3)o2)c(O)c1-c1c(OC)cccc1OC` [Example 129, 5-(2,6-dimethoxyphenyl)-6-(ethoxymethyl)-3-(5-{[3-(trifluoromethyl)-1H-pyrazol-1-yl]methyl}-1,3,4-oxadiazol-2-yl)pyridine-2,4-diol], the pEC50 was 7.00 to 8.00. Still for that read-out and setting: with `CCOCc1nc(O)c(-c2nnc(Cc3ccc(Cl)cn3)o2)c(O)c1-c1c(OC)cccc1OC` [Example 127, 3-{5-[(5-chloropyridin-2-yl)methyl]-1,3,4-oxadiazol-2-yl}-5-(2,6-dimethoxyphenyl)-6-(ethoxymethyl) pyridine-2,4-diol] the figure was 8.00 to 11.00; with `CCCCc1nc(O)c(-c2nnc(Cn3ccccc3=O)o2)c(O)c1-c1c(OC)cccc1OC` [Example 114, 1-({5-[6-butyl-5-(2,6-dimethoxyphenyl)-2,4-dihydroxypyridin-3-yl]-1,3,4-oxadiazol-2-yl}methyl)-1,2-dihydropyridin-2-one], 8.00 to 11.00. Same read-out and setting: the same measure for `CCOCc1nc(O)c(-c2nnc(Cn3ccc4ccccc43)o2)c(O)c1-c1c(OC)cccc1OC` [Example 136, 5-(2,6-dimethoxyphenyl)-6-(ethoxymethyl)-3-[5-(1H-indol-1-ylmethyl)-1,3,4-oxadiazol-2-yl]pyridine-2,4-diol]: 7.00 to 8.00. Still for that read-out and setting: with `CCCCc1nc(O)c(-c2nnc(Cc3ccc(F)c(F)c3)o2)c(O)c1-c1cccc(OC(F)(F)F)c1` [Example 141, 6-butyl-3-{5-[(3,4-difluorophenyl)methyl]-1,3,4-oxadiazol-2-yl}-5-[3-(trifluoromethoxy)phenyl]pyridine-2,4-diol] the figure was 7.00 to 8.00.
